Source: PubChem BioAssay AID1918935 (Molecular Pharmacology Branch, DTP, NCI, 2023)

Test system: 324938-238-R-J1-PDC complex spheroid viability
Experiment: Anticancer human tumor 324938-238-R-J1-PDC patient-derived bladder carcinoma cell line growth inhibition
Conditions: for IC50: curve of first compound; for viability, T/C: stronger effect = lower value
Outline: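 Drug combinations with the LSD1 inhibitor iadademstat tested on tumor cells co-cultured as spheroids with endothelial cells and mesenchymal stem cells. Concentrations descended in half-log increments from clinical Cmax or 10 microM.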

[1] = second compound 0.1 µM, first compound 0.0316 µM
[2] = second compound 0.1 µM, first compound 0.1 µM
[3] = second compound 0.1 µM, first compound 0.316 µM
[4] = second compound 0.1 µM, first compound 1 µM
[5] = second compound 0.1 µM, first compound 3.16 µM
[6] = second compound 0.1 µM, first compound 10 µM
[7] = second compound 0.316 µM, first compound 0.0316 µM
[8] = second compound 0.316 µM, first compound 0.1 µM
[9] = second compound 0.316 µM, first compound 0.316 µM
[10] = second compound 0.316 µM, first compound 1 µM
[11] = second compound 0.316 µM, first compound 3.16 µM
[12] = second compound 0.316 µM, first compound 10 µM
[13] = second compound 1 µM, first compound 0.0316 µM
[14] = second compound 1 µM, first compound 0.1 µM
[15] = second compound 1 µM, first compound 0.316 µM
[16] = second compound 1 µM, first compound 1 µM
[17] = second compound 1 µM, first compound 3.16 µM
[18] = second compound 1 µM, first compound 10 µM
[19] = second compound 3.16 µM, first compound 0.0316 µM
[20] = second compound 3.16 µM, first compound 0.1 µM
[21] = second compound 3.16 µM, first compound 0.316 µM
[22] = second compound 3.16 µM, first compound 1 µM
[23] = second compound 3.16 µM, first compound 3.16 µM
[24] = second compound 3.16 µM, first compound 10 µM
[25] = second compound 10 µM, first compound 0.0316 µM
[26] = second compound 10 µM, first compound 0.1 µM
[27] = second compound 10 µM, first compound 0.316 µM
[28] = second compound 10 µM, first compound 1 µM
[29] = second compound 10 µM, first compound 3.16 µM
[30] = second compound 10 µM, first compound 10 µM
[31] = second compound 0.1 µM, first compound 0.00316 µM
[32] = second compound 0.1 µM, first compound 0.01 µM
[33] = second compound 0.316 µM, first compound 0.00316 µM
[34] = second compound 0.316 µM, first compound 0.01 µM
[35] = second compound 1 µM, first compound 0.00316 µM
[36] = second compound 1 µM, first compound 0.01 µM
[37] = second compound 3.16 µM, first compound 0.00316 µM
[38] = second compound 3.16 µM, first compound 0.01 µM
[39] = second compound 10 µM, first compound 0.00316 µM
[40] = second compound 10 µM, first compound 0.01 µM
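Note: spheroids also contain HUVEC and human MSCs and agents combined with iadademstat; spheroids exposed to agents for 7 days before readout.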

Compound: CC(C)c1c(-c2ccccc2)nc2c(C#N)c[nH]n2c1=O + NC1CC1c1ccc(-c2cccc(O)c2)cc1
- IC50 (second compound 0.1 µM): > 10000 nM
- IC50 (second compound 0.316 µM): > 10000 nM
- IC50 (second compound 1 µM): > 10000 nM
- IC50 (second compound 3.16 µM): > 10000 nM
- IC50 (second compound 10 µM): > 10000 nM
- viability, T/C [1]: 104%
- viability, T/C [2]: 98.2%
- viability, T/C [3]: 101%
- viability, T/C [4]: 94%
- viability, T/C [5]: 90.8%
- viability, T/C [6]: 72.6%
- viability, T/C [7]: 82.9%
- viability, T/C [8]: 84.9%
- viability, T/C [9]: 87.2%
- viability, T/C [10]: 82.6%
- viability, T/C [11]: 88.7%
- viability, T/C [12]: 79.1%
- viability, T/C [13]: 85.7%
- viability, T/C [14]: 99.3%
- viability, T/C [15]: 85.4%
- viability, T/C [16]: 89.1%
- viability, T/C [17]: 81.7%
- viability, T/C [18]: 81%
- viability, T/C [19]: 86.7%
- viability, T/C [20]: 92.1%
- viability, T/C [21]: 86.5%
- viability, T/C [22]: 89.7%
- viability, T/C [23]: 82.7%
- viability, T/C [24]: 77.3%
- viability, T/C [25]: 89.5%
- viability, T/C [26]: 85.4%
- viability, T/C [27]: 86.9%
- viability, T/C [28]: 88.9%
- viability, T/C [29]: 89.3%
- viability, T/C [30]: 80.8%

Compound: COc1ccc([C@@H](O)c2cc(-c3ncnc4cc(N5CCOCC5)ccc34)c(F)cc2Cl)nn1 + NC1CC1c1ccc(-c2cccc(O)c2)cc1
- IC50 (second compound 0.1 µM): 1440 nM
- IC50 (second compound 0.316 µM): 481 nM
- IC50 (second compound 1 µM): 411 nM
- IC50 (second compound 3.16 µM): 313 nM
- IC50 (second compound 10 µM): 439 nM
- viability, T/C [1]: 82.3%
- viability, T/C [2]: 77.6%
- viability, T/C [3]: 65.2%
- viability, T/C [4]: 54%
- viability, T/C [5]: 41.5%
- viability, T/C [6]: 25.7%
- viability, T/C [7]: 71.3%
- viability, T/C [8]: 61.8%
- viability, T/C [9]: 52%
- viability, T/C [10]: 45.7%
- viability, T/C [11]: 34.9%
- viability, T/C [12]: 25%
- viability, T/C [13]: 63.6%
- viability, T/C [14]: 60.5%
- viability, T/C [15]: 49.6%
- viability, T/C [16]: 43.2%
- viability, T/C [17]: 37.5%
- viability, T/C [18]: 23.4%
- viability, T/C [19]: 62.6%
- viability, T/C [20]: 59.4%
- viability, T/C [21]: 49.4%
- viability, T/C [22]: 39.7%
- viability, T/C [23]: 35.3%
- viability, T/C [24]: 25.6%
- viability, T/C [25]: 64.2%
- viability, T/C [26]: 60.2%
- viability, T/C [27]: 55.6%
- viability, T/C [28]: 38.5%
- viability, T/C [29]: 32.7%
- viability, T/C [30]: 21.8%

Compound: CC[C@@]1(O)C(=O)OCc2c1cc1n(c2=O)Cc2cc3c(CN(C)C)c(O)ccc3nc2-1 + NC1CCC(NC2CC2c2ccccc2)CC1
- IC50 (second compound 0.1 µM): 1.54 nM
- IC50 (second compound 0.316 µM): 1.49 nM
- IC50 (second compound 1 µM): 1.58 nM
- IC50 (second compound 3.16 µM): 1.42 nM
- IC50 (second compound 10 µM): 1.16 nM
- viability, T/C (second compound 0.1 µM, first compound 0.000316 µM): 84.7%
- viability, T/C (second compound 0.1 µM, first compound 0.001 µM): 64.7%
- viability, T/C [31]: 25.5%
- viability, T/C [32]: 9.38%
- viability, T/C [1]: 7.9%
- viability, T/C [2]: 8.7%
- viability, T/C (second compound 0.316 µM, first compound 0.000316 µM): 82.5%
- viability, T/C (second compound 0.316 µM, first compound 0.001 µM): 63.2%
- viability, T/C [33]: 25.3%
- viability, T/C [34]: 9.31%
- viability, T/C [7]: 9.04%
- viability, T/C [8]: 8.45%
- viability, T/C (second compound 1 µM, first compound 0.000316 µM): 83.2%
- viability, T/C (second compound 1 µM, first compound 0.001 µM): 66.3%
- viability, T/C [35]: 25.4%
- viability, T/C [36]: 8.84%
- viability, T/C [13]: 9.27%
- viability, T/C [14]: 8.86%
- viability, T/C (second compound 3.16 µM, first compound 0.000316 µM): 74.5%
- viability, T/C (second compound 3.16 µM, first compound 0.001 µM): 61.1%
- viability, T/C [37]: 24.9%
- viability, T/C [38]: 10.1%
- viability, T/C [19]: 8.96%
- viability, T/C [20]: 9.71%
- viability, T/C (second compound 10 µM, first compound 0.000316 µM): 74.2%
- viability, T/C (second compound 10 µM, first compound 0.001 µM): 53.7%
- viability, T/C [39]: 23.9%
- viability, T/C [40]: 9.28%
- viability, T/C [25]: 9.85%
- viability, T/C [26]: 9.19%

Compound: COc1cc(C2c3cc4c(cc3C(OC3OC5COC(C)OC5C(O)C3O)C3COC(=O)C23)OCO4)cc(OC)c1O (stereo not given) + NC1CCC(NC2CC2c2ccccc2)CC1
- IC50 (second compound 0.1 µM): 56.7 nM
- IC50 (second compound 0.316 µM): 54.8 nM
- IC50 (second compound 1 µM): 51.3 nM
- IC50 (second compound 3.16 µM): 54.7 nM
- IC50 (second compound 10 µM): 83.3 nM
- viability, T/C (second compound 0.1 µM, first compound 0.00949 µM): 83.9%
- viability, T/C (second compound 0.1 µM, first compound 0.03 µM): 67%
- viability, T/C (second compound 0.1 µM, first compound 0.0949 µM): 35.3%
- viability, T/C (second compound 0.1 µM, first compound 0.3 µM): 22.2%
- viability, T/C (second compound 0.1 µM, first compound 0.949 µM): 21.9%
- viability, T/C (second compound 0.1 µM, first compound 3 µM): 9.11%
- viability, T/C (second compound 0.316 µM, first compound 0.00949 µM): 84.9%
- viability, T/C (second compound 0.316 µM, first compound 0.03 µM): 64.9%
- viability, T/C (second compound 0.316 µM, first compound 0.0949 µM): 35.3%
- viability, T/C (second compound 0.316 µM, first compound 0.3 µM): 23.4%
- viability, T/C (second compound 0.316 µM, first compound 0.949 µM): 19%
- viability, T/C (second compound 0.316 µM, first compound 3 µM): 10%
- viability, T/C (second compound 1 µM, first compound 0.00949 µM): 76.4%
- viability, T/C (second compound 1 µM, first compound 0.03 µM): 61.6%
- viability, T/C (second compound 1 µM, first compound 0.0949 µM): 36.8%
- viability, T/C (second compound 1 µM, first compound 0.3 µM): 22.6%
- viability, T/C (second compound 1 µM, first compound 0.949 µM): 22.1%
- viability, T/C (second compound 1 µM, first compound 3 µM): 10.1%
- viability, T/C (second compound 3.16 µM, first compound 0.00949 µM): 71.8%
- viability, T/C (second compound 3.16 µM, first compound 0.03 µM): 64%
- viability, T/C (second compound 3.16 µM, first compound 0.0949 µM): 36.1%
- viability, T/C (second compound 3.16 µM, first compound 0.3 µM): 27.1%
- viability, T/C (second compound 3.16 µM, first compound 0.949 µM): 21.3%
- viability, T/C (second compound 3.16 µM, first compound 3 µM): 12.1%
- viability, T/C (second compound 10 µM, first compound 0.00949 µM): 67.4%
- viability, T/C (second compound 10 µM, first compound 0.03 µM): 67.9%
- viability, T/C (second compound 10 µM, first compound 0.0949 µM): 47.1%
- viability, T/C (second compound 10 µM, first compound 0.3 µM): 23.8%
- viability, T/C (second compound 10 µM, first compound 0.949 µM): 18.6%
- viability, T/C (second compound 10 µM, first compound 3 µM): 13.2%

Compound: Nc1ncn(C2CC(O)C(CO)O2)c(=O)n1 (stereo not given) + NC1CCC(NC2CC2c2ccccc2)CC1
- IC50 (second compound 0.1 µM): 177 nM
- IC50 (second compound 0.316 µM): 256 nM
- IC50 (second compound 1 µM): 159 nM
- IC50 (second compound 3.16 µM): 129 nM
- IC50 (second compound 10 µM): 237 nM
- viability, T/C [31]: 71.8%
- viability, T/C [32]: 66%
- viability, T/C [1]: 59.3%
- viability, T/C [2]: 56.1%
- viability, T/C [3]: 44%
- viability, T/C [4]: 40.3%
- viability, T/C [33]: 74.9%
- viability, T/C [34]: 67.1%
- viability, T/C [7]: 68.4%
- viability, T/C [8]: 55.1%
- viability, T/C [9]: 45.6%
- viability, T/C [10]: 42%
- viability, T/C [35]: 73.2%
- viability, T/C [36]: 58.7%
- viability, T/C [13]: 60.4%
- viability, T/C [14]: 50.7%
- viability, T/C [15]: 46.2%
- viability, T/C [16]: 47%
- viability, T/C [37]: 61.9%
- viability, T/C [38]: 58.6%
- viability, T/C [19]: 54.3%
- viability, T/C [20]: 53.4%
- viability, T/C [21]: 44.5%
- viability, T/C [22]: 39.5%
- viability, T/C [39]: 63.5%
- viability, T/C [40]: 67.3%
- viability, T/C [25]: 57.9%
- viability, T/C [26]: 59.1%
- viability, T/C [27]: 45.2%
- viability, T/C [28]: 37%
